Results published in ChEMBL document CHEMBL2390934, “Synthesis and evaluation of phenoxyoxazaphospholidine, phenoxyoxazaphosphinane, and benzodioxaphosphininamine sulfides and related compounds as potential anti-malarial agents” (Bioorg Med Chem Lett, 2013).
The source made the active and inactive calls. The rule behind the calls is not given here.

System: Plasmodium falciparum
Test: Antimalarial activity against chloroquine-resistant Plasmodium falciparum K1/Thailand infected in O positive erythrocytes assessed as parasite lactate dehydrogenase activity after 72 hrs
Format: functional, organism-based
Details: not given

Which Activity does the source give for `CCOP(=S)(NCCCCNc1ccnc2cc(Cl)ccc12)Oc1ccc(C(F)(F)F)cc1` (configuration not stated) here?
Its Activity is “Active”.

System: Plasmodium falciparum
Test: Antimalarial activity against Plasmodium falciparum 3D7 infected in O positive erythrocytes assessed as parasite lactate dehydrogenase activity after 72 hrs
Format: functional, organism-based
Details: 3D7, 72 h

For `CCOP(=O)(NC(C)C)Oc1cc(O)ccn1` (configuration not stated), which IC50 is on record?
The IC50 was 128 µM.

`CCOP(=O)(NC1CCCC1)Oc1ccc(C(F)(F)F)cn1` (configuration not stated) was tested. Which IC50 did it give?
The IC50 was 23 µM.

For `FC(F)(F)c1ccc(OP2(=S)NCCO2)cc1` (configuration not stated), which IC50 is on record?
The IC50 was 108 µM.

How did the IC50 turn out when `CC(C)NP1(=S)OCc2ccccc2O1` (configuration not stated) was run?
Its IC50 is 62 µM.

With `Cc1ccc(OP2(=S)NCCCO2)c([N+](=O)[O-])c1` (configuration not stated) as the compound, how does the IC50 read?
The IC50 was greater than 128 µM.

`CCOP(=S)(NC1CCCC1)Oc1ccc2ncccc2c1` (configuration not stated) was tested. Which IC50 did it give?
Its IC50 is 19 µM.

How did the IC50 turn out when `CCOP(=O)(NC(C)C)Oc1ccc2ccccc2c1` (configuration not stated) was run?
The IC50 was 87 µM.

Which IC50 does the source give for `CC(C)NP1(=S)OCc2cc([N+](=O)[O-])ccc2O1` (configuration not stated) here?
Its IC50 is 108 µM.

For `Cc1cc2c(c([N+](=O)[O-])c1)OP(=S)(NC(C)C)OC2` (configuration not stated), which IC50 is on record?
Its IC50 is greater than 128 µM.

For `CCOP(=O)(NC(C)C)Oc1cc(C)ccn1` (configuration not stated), which IC50 is on record?
Its IC50 is 128 µM.

With `Cc1ccc(OP2(=S)NC(C)CO2)c([N+](=O)[O-])c1` (mixture of isomers) as the compound, how does the IC50 read?
The IC50 was 77 µM.

Which IC50 does the source give for `CCOP(=O)(NC(C)C)Oc1ccc(C(F)(F)F)cn1` (configuration not stated) here?
Its IC50 is 25 µM.

How did the IC50 turn out when `CC(C)CNP1(=S)OCc2cc([N+](=O)[O-])ccc2O1` (configuration not stated) was run?
The IC50 was 118 µM.

Which IC50 does the source give for `Cc1ccc([N+](=O)[O-])cc1OP1(=S)NCCCO1` (configuration not stated) here?
Its IC50 is 108 µM.

With `CCOP(=S)(NCCCCNc1ccnc2cc(Cl)ccc12)Oc1ccc(C(F)(F)F)cc1` (configuration not stated) as the compound, how does the IC50 read?
The IC50 was 0.038 µM.

Which IC50 does the source give for `CC1COP(=S)(Oc2ccc(C(F)(F)F)cc2)N1` (racemic) here?
The IC50 was greater than 128 µM.

For `Cc1ccc(OP2(=S)NCCO2)c([N+](=O)[O-])c1` (configuration not stated), which IC50 is on record?
The IC50 was greater than 128 µM.

`CCOP(=S)(NC(C)C)Oc1ccc(C(F)(F)F)cn1` (configuration not stated) was tested. Which IC50 did it give?
Its IC50 is 29 µM.

Which IC50 does the source give for `CCCNP1(=S)OCc2ccccc2O1` (configuration not stated) here?
Its IC50 is 95 µM.

How did the IC50 turn out when `Cc1cc([N+](=O)[O-])ccc1OP1(=S)NCCCO1` (configuration not stated) was run?
The IC50 was 128 µM.

With `CCOP(=O)(NC(C)C)Oc1cc(C)c([N+](=O)[O-])cn1` (configuration not stated) as the compound, how does the IC50 read?
Its IC50 is 25 µM.

How did the IC50 turn out when `FC(F)(F)c1ccc(OP2(=S)NCCCO2)cc1` (configuration not stated) was run?
Its IC50 is 62 µM.

Which IC50 does the source give for `CCOP(=S)(NC1CCCC1)Oc1cccc2cccnc12` (configuration not stated) here?
Its IC50 is 25 µM.

With `Cc1ccc([N+](=O)[O-])cc1OP1(=S)NCCO1` (configuration not stated) as the compound, how does the IC50 read?
The IC50 was 24 µM.

With `Cc1cc([N+](=O)[O-])ccc1OP1(=S)NCCO1` (configuration not stated) as the compound, how does the IC50 read?
The IC50 was 51 µM.

How did the IC50 turn out when `CC(C)CNP1(=S)OCc2ccccc2O1` (configuration not stated) was run?
The IC50 was 58 µM.

How did the IC50 turn out when `NCCCCNc1ccnc2cc(Cl)ccc12` was run?
The IC50 was 0.64 µM.

`CCOP(=O)(NC(C)C)Oc1nccc(C)c1[N+](=O)[O-]` (configuration not stated) was tested. Which IC50 did it give?
The IC50 was 128 µM.

Which IC50 does the source give for `FC(F)(F)c1ccc(OP2(=S)OCCS2)cc1` (configuration not stated) here?
Its IC50 is 64 µM.

`CCOP(=O)(NC(C)C)Oc1ccc2ccccc2c1[N+](=O)[O-]` (configuration not stated) was tested. Which IC50 did it give?
The IC50 was 98 µM.

For `Cc1ccc([N+](=O)[O-])c(OP2(=S)NCCCO2)c1` (configuration not stated), which IC50 is on record?
Its IC50 is greater than 128 µM.
